Laboratory results taken from the supplement of paper PMC10307832.

Assays:
Test in all cases: relative viability (nuclei count vs DMSO), 5 days (fraction); higher = more cells survive
Pictilisib + Palbociclib = compound: CS(=O)(=O)N1CCN(Cc2cc3nc(-c4cccc5[nH]ncc45)nc(N4CCOCC4)c3s2)CC1 [Pictilisib] + CC(=O)c1c(C)c2cnc(Nc3ccc(N4CCNCC4)cn3)nc2n(C2CCCC2)c1=O [Palbociclib] (partner 0.5 µM)
How it was run: (§1)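 The day after seeding in 1536-well plates, lung cancer cell lines were treated by pin tool with a single drug, or with a fixed anchor-drug dose together with five library-drug doses (not always all listed) in √10 steps. After 5 days, a combined fix-and-stain solution (final 0.05% Triton X-100, 1% formaldehyde, 1 ug/ml Hoechst) was added. Nuclei counted on 4× images gave relative viability as treated counts over vehicle counts, reported as the median of duplicate plates.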

Pictilisib + Navitoclax = compound: CS(=O)(=O)N1CCN(Cc2cc3nc(-c4cccc5[nH]ncc45)nc(N4CCOCC4)c3s2)CC1 [Pictilisib] + CC1(C)CCC(c2ccc(Cl)cc2)=C(CN2CCN(c3ccc(C(=O)NS(=O)(=O)c4ccc(N[C@H](CCN5CCOCC5)CSc5ccccc5)c(S(=O)(=O)C(F)(F)F)c4)cc3)CC2)C1 [Navitoclax] (partner 0.5 µM)
How it was run: as §1

MK-2206 + Luminespib = compound: NC1(c2ccc(-c3nc4ccn5c(=O)[nH]nc5c4cc3-c3ccccc3)cc2)CCC1 [MK-2206] + CCNC(=O)c1noc(-c2cc(C(C)C)c(O)cc2O)c1-c1ccc(CN2CCOCC2)cc1 [Luminespib] (partner 0.01 µM)
How it was run: as §1

MK-2206 + Foretinib = compound: NC1(c2ccc(-c3nc4ccn5c(=O)[nH]nc5c4cc3-c3ccccc3)cc2)CCC1 [MK-2206] + COc1cc2c(Oc3ccc(NC(=O)C4(C(=O)Nc5ccc(F)cc5)CC4)cc3F)ccnc2cc1OCCCN1CCOCC1 [Foretinib] (partner 0.25 µM)
How it was run: as §1

MK-2206 + Decitabine = compound: NC1(c2ccc(-c3nc4ccn5c(=O)[nH]nc5c4cc3-c3ccccc3)cc2)CCC1 [MK-2206] + Nc1ncn([C@H]2C[C@H](O)[C@@H](CO)O2)c(=O)n1 [Decitabine] (partner 2 µM)
How it was run: as §1

Row | Cell Line | relative viability (Pictilisib + Palbociclib; first compound 0.02 µM) | relative viability (Pictilisib + Palbociclib; first compound 0.06325 µM) | relative viability (Pictilisib + Palbociclib; first compound 0.6325 µM) | relative viability (Pictilisib + Palbociclib; first compound 2 µM) | relative viability (Pictilisib + Navitoclax; first compound 0.02 µM) | relative viability (Pictilisib + Navitoclax; first compound 0.06325 µM) | relative viability (Pictilisib + Navitoclax; first compound 0.6325 µM) | relative viability (Pictilisib + Navitoclax; first compound 2 µM) | relative viability (MK-2206 + Luminespib; first compound 0.01 µM) | relative viability (MK-2206 + Luminespib; first compound 0.03162 µM) | relative viability (MK-2206 + Luminespib; first compound 0.3162 µM) | relative viability (MK-2206 + Luminespib; first compound 1 µM) | relative viability (MK-2206 + Foretinib; first compound 0.01 µM) | relative viability (MK-2206 + Foretinib; first compound 0.03162 µM) | relative viability (MK-2206 + Foretinib; first compound 0.3162 µM) | relative viability (MK-2206 + Foretinib; first compound 1 µM) | relative viability (MK-2206 + Decitabine; first compound 0.01 µM) | relative viability (MK-2206 + Decitabine; first compound 0.03162 µM) | relative viability (MK-2206 + Decitabine; first compound 0.3162 µM) | relative viability (MK-2206 + Decitabine; first compound 1 µM)
1 | NCI-H1437 | 0.309 | 0.337 | 0.401 | 0.216 | 1.16 | 1.14 | 1.04 | 0.677 | 1.13 | 1.13 | 0.855 | 1.27 | 1.19 | 1.27 | 1.35 | 1.35 | 0.603 | 0.559 | 0.562 | 0.521
2 | NCI-H1650 | 0.381 | 0.334 | 0.223 | 0.193 | 1.21 | 1.19 | 0.828 | 0.31 | 0.185 | 0.182 | 0.215 | 0.183 | 1.28 | 1.15 | 0.864 | 0.947 | 0.465 | 0.419 | 0.441 | 0.469
3 | NCI-H1651 | 0.518 | 0.499 | 0.496 | 0.378 | 1.02 | 0.926 | 0.9 | 0.53 | 0.865 | 0.888 | 0.808 | 0.965 | 0.724 | 0.658 | 0.834 | 0.733 | 0.592 | 0.652 | 0.637 | 0.432
4 | NCI-H1666 | 0.606 | 0.713 | 0.668 | 0.607 | 0.972 | 0.835 | 0.62 | 0.438 | 0.961 | 1.02 | 1.13 | 1.01 | 1 | 0.985 | 1.02 | 0.91 | 0.589 | 0.703 | 0.765 | 0.684
5 | NCI-H1734 | 0.303 | 0.338 | 0.281 | 0.192 | 0.797 | 0.874 | 0.554 | 0.264 | 0.194 | 0.168 | 0.193 | 0.148 | 1 | 0.994 | 0.682 | 0.64 | 0.527 | 0.516 | 0.469 | 0.447
6 | NCI-H1755 | 0.447 | 0.417 | 0.458 | 0.323 | 1.01 | 1 | 0.889 | 0.571 | 0.411 | 0.636 | 0.469 | 0.346 | 0.929 | 0.986 | 0.816 | 0.823 | 0.724 | 0.71 | 0.726 | 0.638
7 | NCI-H1793 | 0.25 | 0.234 | 0.199 | 0.183 | 0.397 | 0.388 | 0.308 | 0.171 | 0.186 | 0.178 | 0.164 | 0.174 | 0.786 | 0.779 | 0.834 | 0.578 | 0.477 | 0.552 | 0.439 | 0.435
8 | NCI-H1915 | 0.524 | 0.542 | 0.5 | 0.471 | 0.811 | 0.789 | 0.797 | 0.789 | 0.86 | 0.853 | 0.787 | 0.72 | 1.08 | 1.16 | 1.07 | 1.05 | 0.263 | 0.252 | 0.264 | 0.251
9 | NCI-H1944 | 0.322 | 0.235 | 0.226 | 0.183 | 1.04 | 0.99 | 0.974 | 0.394 | 0.729 | 0.806 | 0.685 | 0.676 | 0.889 | 1 | 0.887 | 0.829 | 0.414 | 0.449 | 0.508 | 0.446
10 | NCI-H1975 | 0.553 | 0.544 | 0.342 | 0.143 | 1.02 | 0.936 | 0.707 | 0.314 | 0.126 | 0.199 | 0.204 | 0.144 | 1.08 | 0.96 | 0.91 | 0.801 | 0.387 | 0.346 | 0.36 | 0.323
11 | NCI-H1993 | 0.573 | 0.622 | 0.497 | 0.37 | 0.943 | 0.845 | 0.664 | 0.637 | 0.44 | 0.827 | 0.671 | 0.565 | 0.761 | 0.773 | 0.665 | 0.57 | 0.533 | 0.585 | 0.516 | 0.491
12 | NCI-H2009 | 0.149 | 0.175 | 0.165 | 0.125 | 1.16 | 1.19 | 1.15 | 0.958 | 1.01 | 0.992 | 1.06 | 1.01 | 1.26 | 1.18 | 1.24 | 1.16 | 0.379 | 0.376 | 0.432 | 0.365
13 | NCI-H2023 | 0.339 | 0.33 | 0.161 | 0.148 | 0.959 | 0.965 | 0.734 | 0.313 | 0.681 | 0.66 | 0.619 | 0.413 | 0.943 | 0.972 | 0.922 | 0.722 | 0.247 | 0.225 | 0.243 | 0.211
14 | NCI-H2085 | 0.465 | 0.462 | 0.362 | 0.267 | 1.08 | 1.17 | 0.864 | 0.416 | 0.508 | 0.393 | 0.489 | 0.384 | 0.921 | 1.07 | 1 | 0.735 | 0.511 | 0.584 | 0.513 | 0.514
15 | NCI-H2087 | 0.199 | 0.255 | 0.19 | 0.162 | 1.04 | 0.945 | 0.943 | 0.674 | 0.158 | 0.155 | 0.187 | 0.128 | 1.11 | 1.1 | 1.17 | 1.08 | 0.244 | 0.273 | 0.24 | 0.196
